# Experimental data published in patent US12318452B2, “Degraders of WEE1 kinase” (DANA-FARBER CANCER INSTITUTE, INC., priority 2018, dated 2025).
# Tests used:
# PLK1 = PLK1 (Homo sapiens, UniProt P53350); test: Z′-LYTE kinase activity assay for PLK1; format: biochemical; design: purchased Life Technologies (Invitrogen) commercial assay service; conditions: Km ATP, average of two replicates ± SD
# Description: (§1) LanthaScreen™ assays were conducted for Wee1 in a 10-point dose response as performed in the commercial assay service by Life Technologies™. Z′-LYTE™ assays were conducted for PLK1 as performed in the commercial assay service by Life Technologies™ in a 10-point dose response using Km ATP concentrations.
# The selectivity of Wee1 degradation was then assessed by performing multiplexed mass spectrometry (MS)-based proteomics in MOLT4 cells treated with 100 nM of compound 13 for 2 hours (Donovan et al., Elife 7:e38430 (2018)).
# [1] = tested on: MOLT4 cells (parental, wild type); test: CellTiter-Glo cell viability, 72 hours; format: cell-based
# Description: The indicated cell lines were plated in flat bottom 384-well plates (Corning® cat #3570). MOLT4 cells were plated at a density of 3,000 cells per well in 50 μL media, while OVCAR8, COV362, and Kuramochi cells were plated at a density of 750 cells per well in 50 μL media. Cells were treated the next day (except for MOLT4 cells, which were treated the same day as plating) with 0.1 μL of the indicated compounds in a four-fold dilution series using the Janus pinner. Cells were incubated with compounds for 72 hours at 37° C. 5% CO2. Anti-proliferative effects were then assessed by CellTiter-Glo® Luminescent Cell Viability Assay (Promega™ cat #G7570) according to the manufacturer's standards, measuring luminescence using an EnVision® plate-reader. IC50 values were determined using a non-linear regression curve fit in GraphPad Prism 8. N=4 biological replicates were used for each treatment condition.
# MOLT4 cells were plated in a 384-well plate at 5,000 cells per well in 50 μL media (RPMI+10% FBS+1% Penn/Strep) and treated with 0.1 μL of the candidate compounds in four-fold dilution series using the Janus pinner. Cells were incubated with compounds for 72 hours at 37° C. 5% CO2. Anti-proliferative effects of these compounds were assessed 72 hours after compound addition using CellTiter-Glo® (Promega, cat #G7571). All proliferation assays were performed in biological quadruplicate. […] Effects upon cell viability for compound 13 in the MOLT4 WT cells are therefore likely driven in part by Wee1 inhibition, and in part by CRBN-mediated Wee1 degradation. […] Degradation of Wee1 with compound 21 was mediated by VHL.
# OVCAR8 cells = test: Synergy experiment, CellTiter-Glo co-treatment for 72 hours; format: cell-based
# pCDK1 Y15 = test: Downstream signalling immunoblot in MOLT4 cells (pCDK1 Y15, cleaved PARP, γH2Ax); format: cell-based; conditions: MOLT4 cells
# Description: Whole cell lysates for immunoblotting were prepared by pelleting cells from each cell line at 4° C. (300 g) for 5 minutes. The resulting cell pellets were washed 1× with ice-cold PBS and then resuspended in RIPA lysis buffer (Sigma, cat #R0278) supplemented with protease and phosphatase inhibitor tablets (Roche cat #4906845001). Lysates were clarified at 14,000 rpm for 15 minutes at 4° C. prior to quantification by BCA assay (Pierce™, cat #23225). Whole cell lysates were loaded into Bolt 4-12% Bis-Tris Gels (Thermo Fisher, cat #NW04120BOX) and separated by electrophoreses at 95 V for 1.5 hours. The gels were transferred to a nitrocellulose membrane using the iBlot® Gel Transfer at P3 for 7 minutes (Thermo Fisher, cat #IB23001) and then blocked for 1 hour at room temperature in Odyssey® blocking buffer (LICOR® Biosciences, cat #927-50010). Membranes were probed using antibodies against the relevant proteins at 4° C. overnight in 20% Odyssey® Blocking Buffer in 1×TBST. Membranes were then washed three times with 1×TBST (at least 5 minutes per wash) followed by incubation with the IRDye® goat anti-mouse (LICOR®, cat #926-32210) or goat anti-rabbit (LICOR®, cat #926-32211) secondary antibody (diluted 1:10,000) in 20% Odyssey® Blocking Buffer in 1×TBST for 1 hour at room temperature. After three washes with 1×TBST (at least 5 minutes per wash), the immunoblots were visualized using the ODYSSEY® Infrared Imaging System (LICOR®).
# MOLT4 cells were plated at 1.5 million cells per well in a 6-well plate, with 3 mL of media per well. Cells were then immediately treated with the indicated concentration of the indicated compound and incubated for the indicated amount of time. Cells were collected by transferring each well to a 15 mL conical, centrifuging (1000 rpm for 3 min), then washing the cell pellet 2× with cold PBS. Each cell pellet was then lysed in 100 μL of RIPA lysis buffer (+protease/phosphatase inhibitors). Samples were normalized and prepped in 4×LDS+10% β-mercaptoethanol and boiled for 5 min at 95° C. Lysates were probed for specified proteins by western blotting using the Bolt® system (Life Technologies™)
# The effects of targeted Wee1 degradation on the cell cycle were evaluated. Wee1 is required for the temporal regulation of CDK1 at the G2/M cell-cycle checkpoint, and Wee1 loss therefore […] via activation of CDK1. Following loss of Wee1 activity, cells are expected to enter mitosis before completing DNA repair, ultimately resulting in excessive unrepaired DNA damage, mitotic catastrophe, and apoptosis (Beck et al., Mol. Cell Biol. 32:4226-4236 (2012)).
# Wee1 = Wee1 (Homo sapiens, UniProt P30291); test: LanthaScreen FRET-based biochemical binding assay for Wee1; conditions: LanthaScreen Binding activity assay; average of two replicates ± SD
# Description: as §1
# MOLT4 cells = test: Cell cycle analysis by propidium iodide staining; format: cell-based
# Description: MOLT4 cells were plated at 1.5 million cells per well in a 6-well plate, with 3 mL of media per well. Immediately after plating, cells were treated with the indicated concentrations of the indicated compound. At the indicated time points, cells were collected by transferring each well to a 15 mL conical, centrifuging (1000 rpm for 3 min), and then washing the cell pellet 3× with cold PBS. Cell pellets were then fixed with 1 mL cold 80% ethanol in PBS at 4° C. overnight. The cell pellets were then washed by adding 1 mL of PBS and then centrifuging (1500 rpm for 5 minutes), followed by aspiration of the PBS/ethanol mix. Cells were resuspended in cell cycle staining solution (100 μg/mL of RNAse A (Roche, 10109169001) and 50 μg/mL propidium iodide (Life Technologies™, P1304MP), diluted in PBS, and incubated for 10 minutes at room temperature. Cell cycle data was acquired by flow cytometry on a Guava® easyCyte™ flow cytometer (Millipore™) using the InCyte™ software. Data was analyzed using FlowJo®. N=3 biological replicates were used for each treatment condition.
# Chain of PLK1 (P53350 whole entry): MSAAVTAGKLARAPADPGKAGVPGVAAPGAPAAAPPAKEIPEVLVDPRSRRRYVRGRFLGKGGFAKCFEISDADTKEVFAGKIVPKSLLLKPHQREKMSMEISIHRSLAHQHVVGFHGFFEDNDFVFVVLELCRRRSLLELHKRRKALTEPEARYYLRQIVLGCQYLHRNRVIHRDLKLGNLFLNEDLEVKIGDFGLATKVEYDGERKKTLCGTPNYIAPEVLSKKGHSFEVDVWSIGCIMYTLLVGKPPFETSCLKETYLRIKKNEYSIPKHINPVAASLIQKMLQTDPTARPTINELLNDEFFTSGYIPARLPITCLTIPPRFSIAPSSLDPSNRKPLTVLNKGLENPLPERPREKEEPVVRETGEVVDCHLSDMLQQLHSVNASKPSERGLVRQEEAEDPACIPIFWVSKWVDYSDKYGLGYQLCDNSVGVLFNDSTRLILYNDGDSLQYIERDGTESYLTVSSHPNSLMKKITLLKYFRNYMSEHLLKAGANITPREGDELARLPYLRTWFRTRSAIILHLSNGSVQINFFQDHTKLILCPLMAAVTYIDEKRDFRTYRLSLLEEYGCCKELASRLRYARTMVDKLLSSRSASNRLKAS
# Chain of Wee1 (P30291 whole entry): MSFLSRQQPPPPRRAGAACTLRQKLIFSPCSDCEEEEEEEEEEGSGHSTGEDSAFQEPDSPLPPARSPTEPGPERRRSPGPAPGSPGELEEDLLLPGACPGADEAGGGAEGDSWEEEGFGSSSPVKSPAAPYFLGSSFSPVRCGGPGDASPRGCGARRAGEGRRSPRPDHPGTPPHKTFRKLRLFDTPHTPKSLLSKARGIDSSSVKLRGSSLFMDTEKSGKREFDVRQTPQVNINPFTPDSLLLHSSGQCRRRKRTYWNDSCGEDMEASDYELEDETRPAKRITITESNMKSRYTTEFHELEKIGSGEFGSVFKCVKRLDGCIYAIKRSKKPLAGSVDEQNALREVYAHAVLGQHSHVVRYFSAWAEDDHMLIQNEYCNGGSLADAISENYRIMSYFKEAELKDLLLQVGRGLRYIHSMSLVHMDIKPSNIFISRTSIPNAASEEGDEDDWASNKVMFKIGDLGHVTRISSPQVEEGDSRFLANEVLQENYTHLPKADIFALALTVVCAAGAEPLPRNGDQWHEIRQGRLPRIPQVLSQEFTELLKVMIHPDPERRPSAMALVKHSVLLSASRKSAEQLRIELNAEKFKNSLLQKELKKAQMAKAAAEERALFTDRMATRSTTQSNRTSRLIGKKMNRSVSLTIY
IC50 (PLK1),IC50 (Wee1),Structure (SMILES),Antiproliferative activity ([1]; 72-hr),Synergy with AZD1775 (OVCAR8 cells; 72-hr co-treatment with AZD1775),Synergy with Olaparib (OVCAR8 cells; 72-hr co-treatment with Olaparib),"Effect on phosphorylation of CDK1 Y15, apoptosis, DNA damage (pCDK1 Y15; 1 μM, 24 hours)","Effect on the cell cycle (MOLT4 cells; 100 nM, 24-hr, MOLT4 cells)","Dose needed to elicit the same cell cycle changes as 100 nM of compound 13 (MOLT4 cells; 24-hr, MOLT4 cells)","Cell cycle effects in CRBN−/− cells (MOLT4 cells; CRBN−/− MOLT4 cells, 24 hours)","IC50 ([1]; Homo sapiens, MOLT-4, 72 hours, read-out: Antiproliferative IC50)","Downstream signalling changes (pCDK1 Y15, PARP cleavage, γH2Ax) (pCDK1 Y15; 100 nM, 24-hr)",Treatment necessary to induce the same downstream changes as 100 nM of compound 13 (pCDK1 Y15; 24-hr)
> 10000 nM,> 10000 nM,"Nc1cccc2c1C(=O)N(C1CCC(=O)NC1=O)C2=O (stereo not shown) [Pomalidomide, reference compound]",no detectable antiproliferative activity,not synergistic,not synergistic,"did not affect phosphorylation of CDK1 Y15, apoptosis, or levels of DNA damage",–,–,–,–,–,–
212 ± 12 nM,–,"C=CCn1c(=O)c2cnc(Nc3ccc(N4CCN(C)CC4)cc3)nc2n1-c1cccc(C(C)(C)O)n1 [AZD1775, 2-allyl-1-[6-(1-hydroxy-1-methylethyl)pyridin-2-yl]-6-{[4-(4-methylpipera-zin-1-yl)phenyl]amino}-1,2-dihydro-3H-pyrazolo[3,4-d]pyrimidin-3-one, reference compound]",–,–,–,–,did not appreciably affect the cell cycle,1 µM,unchanged,800 nM,did not produce any noticeable changes,1 µM
